Experimental data as given in publication PMC8523698, “Preclinical characterization of an intravenous coronavirus 3CL protease inhibitor for the potential treatment of COVID19” (Nature Communications, 2021).
“And” between values parts separate entries of the source, which are not always exact repeats. Identical values can stand only once.

Test system: CYP3A4/5
Experiment: Reversible CYP inhibition in human liver microsomes
Conditions: for IC50: at approximately KM

COc1cccc2[nH]c(C(=O)N[C@@H](CC(C)C)C(=O)N[C@@H](C[C@@H]3CCNC3=O)C(=O)CO)cc12 [PF-00835231]
Percent of Control Activity (CYP 3A4/5 (mdz), 200 µM, 30-Minute Preincubation): 50.6% and 46.7%
Percent of Control Activity (CYP 3A4/5 (mdz), 200 µM, Zero-Minute Preincubation): 109.5%
Percent of Control Activity (CYP 3A4/5 (tst), 0.214 µM, 30-Minute Preincubation): 110.1%
Percent of Control Activity (CYP 3A4/5 (tst), 0.214 µM, Zero-Minute Preincubation): 116.0% and 141.9%
Percent of Control Activity (CYP 3A4/5 (tst), 0.979 µM, 30-Minute Preincubation): 122.3%
Percent of Control Activity (CYP 3A4/5 (tst), 0.979 µM, Zero-Minute Preincubation): 120.0% and 100.0%
Percent of Control Activity (CYP 3A4/5 (tst), 2.09 µM, 30-Minute Preincubation): 146.9% and 144.6% and 107.9%
Percent of Control Activity (CYP 3A4/5 (tst), 2.09 µM, Zero-Minute Preincubation): 128.1%
Percent of Control Activity (CYP 3A4/5 (tst), 4.48 µM, 30-Minute Preincubation): 142.0% and 164.4%
Percent of Control Activity (CYP 3A4/5 (tst), 4.48 µM, Zero-Minute Preincubation): 92.4% and 117.7% and 97.0%
Percent of Control Activity (CYP 3A4/5 (tst), 20.5 µM, 30-Minute Preincubation): 84.0%
Percent of Control Activity (CYP 3A4/5 (tst), 20.5 µM, Zero-Minute Preincubation): 71.0% and 70.3%
Percent of Control Activity (CYP 3A4/5 (tst), 43.8 µM, 30-Minute Preincubation): 71.6%
Percent of Control Activity (CYP 3A4/5 (tst), 43.8 µM, Zero-Minute Preincubation): 96.7%
Percent of Control Activity (CYP 3A4/5 (tst), 93.5 µM, 30-Minute Preincubation): 42.9% and 41.8%
Percent of Control Activity (CYP 3A4/5 (tst), 93.5 µM, Zero-Minute Preincubation): 60.1%
Percent of Control Activity (CYP 3A4/5 (tst), 200 µM, 30-Minute Preincubation): 26.6%
Percent of Control Activity (CYP 3A4/5 (tst), 200 µM, Zero-Minute Preincubation): 39.6% and 35.7%
IC50 (human, human liver microsomes, pH 7.4, probe midazolam (1′-hydroxylation), IC50, Midazolam 1′-hydroxylation, T0): > 200 µM
IC50 (human, human liver microsomes, pH 7.4, probe midazolam (1′-hydroxylation), IC50, Midazolam 1′-hydroxylation, T30): > 200 µM
activity at 0.1 µM (human, human liver microsomes, pH 7.4, probe midazolam (mdz), Percent of Control Activity, CYP 3A4/5 (mdz), 0.1 µM, 30-Minute Preincubation): 113%
activity at 0.214 µM (human, human liver microsomes, pH 7.4, probe midazolam (mdz), Percent of Control Activity, CYP 3A4/5 (mdz), 0.214 µM, 30-Minute Preincubation): 111%
activity at 0.214 µM (human, human liver microsomes, pH 7.4, probe midazolam (mdz), Percent of Control Activity, CYP 3A4/5 (mdz), 0.214 µM, Zero-Minute Preincubation): 107%
activity at 0.979 µM (human, human liver microsomes, pH 7.4, probe midazolam (mdz), Percent of Control Activity, CYP 3A4/5 (mdz), 0.979 µM, 30-Minute Preincubation): 113%
activity at 0.979 µM (human, human liver microsomes, pH 7.4, probe midazolam (mdz), Percent of Control Activity, CYP 3A4/5 (mdz), 0.979 µM, Zero-Minute Preincubation): 115%
activity at 2.09 µM (human, human liver microsomes, pH 7.4, probe midazolam (mdz), Percent of Control Activity, CYP 3A4/5 (mdz), 2.09 µM, 30-Minute Preincubation): 112%
activity at 2.09 µM (human, human liver microsomes, pH 7.4, probe midazolam (mdz), Percent of Control Activity, CYP 3A4/5 (mdz), 2.09 µM, Zero-Minute Preincubation): 100%
activity at 4.48 µM (human, human liver microsomes, pH 7.4, probe midazolam (mdz), Percent of Control Activity, CYP 3A4/5 (mdz), 4.48 µM, 30-Minute Preincubation): 106%
activity at 43.8 µM (human, human liver microsomes, pH 7.4, probe midazolam (mdz), Percent of Control Activity, CYP 3A4/5 (mdz), 43.8 µM, 30-Minute Preincubation): 88.1%
activity at 93.5 µM (human, human liver microsomes, pH 7.4, probe midazolam (mdz), Percent of Control Activity, CYP 3A4/5 (mdz), 93.5 µM, 30-Minute Preincubation): 72.3%
activity at 93.5 µM (human, human liver microsomes, pH 7.4, probe midazolam (mdz), Percent of Control Activity, CYP 3A4/5 (mdz), 93.5 µM, Zero-Minute Preincubation): 113%
activity at 200 µM (human, human liver microsomes, pH 7.4, probe midazolam (mdz), Percent of Control Activity, CYP 3A4/5 (mdz), 200 µM, 30-Minute Preincubation): 54.3%
activity at 200 µM (human, human liver microsomes, pH 7.4, probe midazolam (mdz), Percent of Control Activity, CYP 3A4/5 (mdz), 200 µM, Zero-Minute Preincubation): 107%
IC50 (human, human liver microsomes, pH 7.4, probe testosterone (6β-hydroxylation), IC50 (confidence interval), Testosterone 6β-hydroxylation, T0): 108 µM
IC50 (human, human liver microsomes, pH 7.4, probe testosterone (6β-hydroxylation), IC50 (confidence interval), Testosterone 6β-hydroxylation, T30): 62.4 µM
activity at 30 min, 0.1 µM (human, human liver microsomes, pH 7.4, probe testosterone (tst), Percent of Control Activity, CYP 3A4/5 (tst), 0.1 µM, 30-Minute Preincubation): 92.1%
activity at 0.1 µM (human, human liver microsomes, pH 7.4, probe testosterone (tst), Percent of Control Activity, CYP 3A4/5 (tst), 0.1 µM, Zero-Minute Preincubation): 88.6%
activity at 30 min, 0.214 µM (human, human liver microsomes, pH 7.4, probe testosterone (tst), Percent of Control Activity, CYP 3A4/5 (tst), 0.214 µM, 30-Minute Preincubation): 115%
activity at 30 min, 0.979 µM (human, human liver microsomes, pH 7.4, probe testosterone (tst), Percent of Control Activity, CYP 3A4/5 (tst), 0.979 µM, 30-Minute Preincubation): 116%
activity at 0 min, 0.979 µM (human, human liver microsomes, pH 7.4, probe testosterone (tst), Percent of Control Activity, CYP 3A4/5 (tst), 0.979 µM, Zero-Minute Preincubation): 114%
activity at 0 min, 2.09 µM (human, human liver microsomes, pH 7.4, probe testosterone (tst), Percent of Control Activity, CYP 3A4/5 (tst), 2.09 µM, Zero-Minute Preincubation): 109%
activity at 43.8 µM (human, human liver microsomes, pH 7.4, probe testosterone (tst), Percent of Control Activity, CYP 3A4/5 (tst), 43.8 µM, 30-Minute Preincubation): 73.4%
activity at 43.8 µM (human, human liver microsomes, pH 7.4, probe testosterone (tst), Percent of Control Activity, CYP 3A4/5 (tst), 43.8 µM, Zero-Minute Preincubation): 75.3%
activity at 93.5 µM (human, human liver microsomes, pH 7.4, probe testosterone (tst), Percent of Control Activity, CYP 3A4/5 (tst), 93.5 µM, 30-Minute Preincubation): 37.7%
activity at 93.5 µM (human, human liver microsomes, pH 7.4, probe testosterone (tst), Percent of Control Activity, CYP 3A4/5 (tst), 93.5 µM, Zero-Minute Preincubation): 54.9%
activity at 200 µM (human, human liver microsomes, pH 7.4, probe testosterone (tst), Percent of Control Activity, CYP 3A4/5 (tst), 200 µM, 30-Minute Preincubation): 15.1%
activity at 200 µM (human, human liver microsomes, pH 7.4, probe testosterone (tst), Percent of Control Activity, CYP 3A4/5 (tst), 200 µM, Zero-Minute Preincubation): 36.4%
